Results taken from patent US7642277B2, “Non-nucleoside reverse transcriptase inhibitors” (Boehringer Ingelheim International GmbH, priority 2002, dated 2010).

How the values were obtained:
[1] = molecular target: T1, HIV-1 RT enzyme (wild type) (Human immunodeficiency virus type 1 group M subtype B, UniProt P04585); experiment: Reverse transcriptase (RT) enzymatic assay (IC50), PicoGreen fluorescence, wild type; type: biochemical; details: RT enzymatic assay, wild type; read-out: IC50 WT
T1 construct: The reverse transcriptase (RT) enzyme assay has been adapted to a 96-well microtiter plate format
Procedure: (§1) Reverse Transcriptase (RT) Assays Enzymatic Assay (IC50)
The enzymatic assay employed is described as follows: The reverse transcriptase (RT) enzyme assay has been adapted to a 96-well microtiter plate format and uses PicoGreen™ as a fluorescent intercalator. More explicitly, the HIV-1 RT enzyme was thawed and appropriately diluted into Tris/HCl 50 mM pH 7.8 containing NaCl 60 mM, MgCl2∘6H2O 2 mM, DTT 6 mM, GSH 2 mM and 0.02% w/v Chaps to give ≈10 nM enzyme. […] The plate was pre-incubated for 15 minutes at room temperature before proceeding to the next step. […] Then the enzymatic reaction was initiated by addition of 20 μL of substrate solution. […] After addition of the substrate cocktail, the plate was covered with a plastic seal and incubated for 50 minutes at 37° C. in a dry incubator. The reaction was then quenched by addition of 5 μL of EDTA 0.5 M. The plate was shaken for 30 seconds at medium speed and incubated for 5 minutes at room temperature. Then 160 μL of PicoGreen™ 1:400 dilution from commercial stock (diluted in Tris 20 mM pH 7.5 with EDTA 1 mM) was added and the plate was shaken for 30 seconds and incubated for 10 minutes at room temperature. […] Each row contained at its extremities a blank and a control well.
(§2) Table legend: A=>100; B=100-50; C=<50; NT=not tested

[2] = tested on: HIV-1 resistant mutant K103N/Y181C in C8166 LTRluc cells; experiment: C8166 HIV-1 luciferase assay (EC50), resistant mutant; type: cell-based; details: Human immunodeficiency virus 1, C8166, read-out: EC50 K103N/Y181C
Text: (§3) C8166 HIV-1 Luciferase Assay (EC50)
(§4) Plasmid: pGL3 Basic LTR/TAR #12
(§5) C8166 cells are a human T-lymphotrophic virus type 1 immortalized but nonexpressing line of cord blood lymphocytes and are highly permissive to HIV-1 infection. The reporter cells were made by electroporating C8166 cells with pGL3 Basic LTR/TAR and then selecting positive clones with blasticidine. The clone C8166-LTRluc #A8-F5-G7 was selected by 3 consecutive rounds of limiting dilution under blasticidine selection.
(§6) Media: Complete media consisting of: RPMI 1640+10% FBS+10^−5 M
(§7) β-mercaptoethanol+10 μg/ml gentamycin. Cultures are maintained in complete media with 5 μg/ml blasticidine, however, selection is removed for the assay.
(§8) Luciferase Assay Protocol
(§9) Eleven serial dilutions of 2.5× are made at 8× desired final concentration in a 1 ml deep well titer plate (96 wells). The 12th well contains complete media with no inhibitor and serves as the positive control. All samples contain the same concentration of DMSO (≦0.1% DMSO). A 25 μl aliquot of inhibitor is added, to triplicate wells, of a 96 well tissue culture treated clear view black microtiter plate (Corning Costar catalogue # 3904). The last row is reserved for uninfected C8166 LTRluc cells to serve as the background blank control and the first row is media alone.
Count C8166 LTRluc cells and place in a minimal volume of complete RPMI 1640 in a tissue culture flask (ex. 30×10^6 cells in 10 ml media/25 cm^2 flask). […] Incubate cells for 1.5 hours at 37° C. on a rotating rack in a 5% CO2 incubator. Resuspend cells in complete RPMI to give a final concentration of 25,000-cells/175 μl. Add 175 μl of cell mix to wells of 96 well microtiter plate containing 25 μl 8× inhibitors. Add 25,000 uninfected C8166-LTRluc cells/well in 200 μl complete RPMI to last row for background control. Incubate cells at 37° C. in 5% CO2 incubator for 3 days.
(§10) Add 50 μl Steady Glo (luciferase substrate T1/2=5 hours Promega catalogue # E2520) to each well of the 96 well plate. Determine the relative light units (RLU) of luciferase using the BMG LUMlstar Galaxy luminometer. Plates are read from the bottom for 2 seconds per well with a gain of 240.
(§11) The level of inhibition (% inhibition) of each well containing inhibitor was calculated with the following equation: […]
The calculated % inhibition values were then used to determine EC50, slope factor (n) and maximum inhibition (Imax) by the non-linear regression routine NLIN procedure of SAS using the following equation:
as §2

[3] = molecular target: T2, HIV-1 RT resistant mutant K103N/Y181C (Human immunodeficiency virus type 1 group M subtype B, UniProt P04585, K690N/Y768C); experiment: Reverse transcriptase (RT) enzymatic assay (IC50), PicoGreen fluorescence, resistant mutant; type: biochemical
T2 construct: The reverse transcriptase (RT) enzyme assay has been adapted to a 96-well microtiter plate format
Procedure: as §1
The enzymatic assay employed is described as follows: The reverse transcriptase (RT) enzyme assay has been adapted to a 96-well microtiter plate format and uses PicoGreen™ as a fluorescent intercalator. More explicitly, the HIV-1 RT enzyme was thawed and appropriately diluted into Tris/HCl 50 mM pH 7.8 containing NaCl 60 mM, MgCl2∘6H2O 2 mM, DTT 6 mM, GSH 2 mM and 0.02% w/v Chaps to give ≈10 nM enzyme. To 10 μL of this enzyme solution was added 10 μL of inhibitor solution (40 μM to […] inhibitor in the same assay buffer as above containing 4% v/v DMSO). The plate was pre-incubated for 15 minutes at room temperature before proceeding to the next step. In this pre-incubation step, the highest and lowest inhibitor concentrations were 20 μM and 1.016 nM respectively and the concentration of DMSO was 2% v/v. Then the enzymatic reaction was initiated by addition of 20 μL of substrate solution. The final reaction mixture contained Tris/HCl 50 mM pH 7.8, NaCl 60 mM, MgCl2∘6H2O 2 mM, DTT 6 mM, GSH 2 mM, CHAPS 0.02% w/v, DMSO 1% v/v, poly rC 45 nM, dG15 4.5 nM, dGTP 3.6 μM, and ≈2.5 nM enzyme. In this incubation step, the highest and lowest inhibitor concentrations were 10 μM and 0.508 nM respectively. After addition of the substrate cocktail, the plate was covered with a plastic seal and incubated for 50 minutes at 37° C. in a dry incubator. The reaction was then quenched by addition of 5 μL of EDTA 0.5 M. The plate was shaken for 30 seconds at medium speed and incubated for 5 minutes at room temperature. Then 160 μL of PicoGreen™ 1:400 dilution from commercial stock (diluted in Tris 20 mM pH 7.5 with EDTA 1 mM) was added and the plate was shaken for 30 seconds and incubated for 10 minutes at room temperature. The plate was then analyzed using a POLARstar Galaxy fluorimeter (BMG Labtechnologies) with λex and λem of 485 nm and 520 nm respectively. […] Each row contained at its extremities a blank and a control well.
as §2

[4] = tested on: HIV-1 (wild type) in C8166 LTRluc cells; experiment: C8166 HIV-1 luciferase assay (EC50), wild type; type: cell-based; details: Human immunodeficiency virus 1, C8166 HIV-1 luciferase assay (no *)
Text: as §3, §4
Plasmid is the pGL3 Basic Vector (a promoterless luciferase expression vector from Promega catalogue #E1751) with the addition of HIV-1 H×B2 LTR sequence from nucleotide −138 to +80 (Sca1-HindIII) upstream of the luciferase gene and the gene for blasticidine resistance cloned in.
as §5, §6, §7, §8
as §9, with “Serial dilutions of HIV-1 inhibitors compounds are prepared in complete media from 10 mM DMSO stock solutions. Eleven” for “Eleven”
Count C8166 LTRluc cells and place in a minimal volume of complete RPMI 1640 in a tissue culture flask (ex. 30×10^6 cells in 10 ml media/25 cm^2 flask). Infect cells with HIV-1 at a moi of 0.005. Incubate cells for 1.5 hours at 37° C. on a rotating rack in a 5% CO2 incubator. Resuspend cells in complete RPMI to give a final concentration of 25,000-cells/175 μl. Add 175 μl of cell mix to wells of 96 well microtiter plate containing 25 μl 8× inhibitors. Add 25,000 uninfected C8166-LTRluc cells/well in 200 μl complete RPMI to last row for background control. Incubate cells at 37° C. in 5% CO2 incubator for 3 days.
as §10, §11
The calculated % inhibition values were then used to determine EC50, slope factor (n) and maximum inhibition (Imax) by the non-linear regression routine NLIN procedure of SAS using the following equation: […]
The results are listed in Table 9 as IC50(nM) and EC50 (nM).
as §2

Structure (SMILES) | IC50 [1] | EC50 [2] | IC50 [3] | EC50 [4]
O=C(CSc1nnnn1-c1ccc(I)cc1Cl)Nc1ccccc1Cl [Entry 706] | < 50 nM | > 100 nM | > 100 nM | < 50 nM
Cc1ccc(-n2nnnc2SCC(=O)Nc2ccc(C(N)=O)cc2[N+](=O)[O-])c(Cl)c1 [Entry 508] | < 50 nM | < 50 nM | 50 to 100 nM | < 50 nM
Cc1ccc(-c2ccccc2SCC(=O)Nc2ccccc2[N+](=O)[O-])c(Cl)c1 [Entry 417] | < 50 nM | > 100 nM | > 100 nM | < 50 nM
Cc1ccc(-n2nnnc2SCC(=O)Nc2ccc(-c3ccccc3)cc2C)c(Cl)c1 [Entry 511] | < 50 nM | > 100 nM | > 100 nM | < 50 nM
CC(C)(C)c1ccc(-n2nnnc2SCC(=O)Nc2ccc(N3CCNCC3)cc2Cl)c(Cl)c1 [Entry 615] | < 50 nM | > 100 nM | > 100 nM | < 50 nM
CCc1ccc(-n2nnnc2SCC(=O)Nc2ccccc2Cl)c(Cl)c1 [Entry 707] | < 50 nM | > 100 nM | > 100 nM | < 50 nM
Cc1ccc(-n2nnnc2SCC(=O)Nc2ccc(C(=O)O)cc2[N+](=O)[O-])c(Cl)c1 [Entry 507] | < 50 nM | > 100 nM | > 100 nM | < 50 nM
Cc1cc(C)c(-n2nnnc2SCC(=O)Nc2ccccc2[N+](=O)[O-])c(Br)c1 [Entry 147] | < 50 nM | 50 to 100 nM | > 100 nM | < 50 nM
CC(C)=CCc1ccc(-n2nnnc2SCC(=O)Nc2ccccc2Cl)c(Cl)c1 [Entry 709] | < 50 nM | > 100 nM | > 100 nM | > 100 nM
Cc1cc(C(F)(F)F)cc(-n2nnnc2SCC(=O)Nc2ccc(S(N)(=O)=O)cc2Cl)c1Cl [Entry 703] | < 50 nM | < 50 nM | 50 to 100 nM | < 50 nM
CC(C)(C)c1ccc(-n2nnnc2SCC(=O)Nc2ccc(N3CCOCC3)cc2Cl)c(Cl)c1 [Entry 611] | < 50 nM | > 100 nM | > 100 nM | < 50 nM
Cc1cc(C)c(-n2nnnc2SCC(=O)Nc2ccccc2[N+](=O)[O-])c(Cl)c1 [Entry 146] | < 50 nM | 50 to 100 nM | 50 to 100 nM | < 50 nM
Cc1ccc(Cl)c(-n2nnnc2SCC(=O)Nc2ccccc2[N+](=O)[O-])c1 [Entry 145] | < 50 nM | > 100 nM | > 100 nM | < 50 nM
Cc1ccc(-n2nnnc2SCC(=O)Nc2ccc(-c3cccnc3)cc2Cl)c(Cl)c1 [Entry 512] | < 50 nM | > 100 nM | > 100 nM | < 50 nM
Cc1nnc(SCC(=O)Nc2ccccc2Cl)n1-c1ccc(C(C)(C)C)cc1Cl [Entry 430] | < 50 nM | 50 to 100 nM | 50 to 100 nM | < 50 nM
CC(C)(C)c1ccc(-n2nnnc2SCC(=O)Nc2ccncc2Cl)c(Cl)c1 [Entry 801] | < 50 nM | < 50 nM | < 50 nM | < 50 nM
CC(C)(C)OC(=O)N1CCN(c2ccc(NC(=O)CSc3nnnn3-c3ccc(C(C)(C)C)cc3Cl)c(Cl)c2)CC1 [Entry 614] | < 50 nM | > 100 nM | > 100 nM | < 50 nM
C=CCc1ccc(-n2nnnc2SCC(=O)Nc2ccccc2Cl)c(Cl)c1 [Entry 708] | < 50 nM | > 100 nM | > 100 nM | < 50 nM
CN1CCN(c2ccc(NC(=O)CSc3nnnn3-c3ccc(C(C)(C)C)cc3Cl)c(Cl)c2)CC1 [Entry 610] | < 50 nM | > 100 nM | > 100 nM | < 50 nM
Cc1ccc(-n2nnnc2SCC(=O)Nc2ccc(C(=O)O)cc2Br)c(Cl)c1 [Entry 505] | < 50 nM | > 100 nM | > 100 nM | < 50 nM
Cc1ccc(-n2nnnc2SCC(=O)Nc2ccc(-c3ccccc3)cc2Cl)c(Cl)c1 [Entry 510] | < 50 nM | > 100 nM | 50 to 100 nM | < 50 nM
CCN(CC)c1ccc(-n2nnnc2SCC(=O)Nc2ccccc2[N+](=O)[O-])cc1 [Entry 143] | – | > 100 nM | > 100 nM | < 50 nM
